melting point | Compound
168 to 169 °C | CC(OC(=O)Nc1ccc(-c2c(C#N)c3ccc(OCCCCn4cncn4)cc3n2C2CCC2)cc1)C(F)(F)F (stereo not shown) [Compound 2643]
182 to 183 °C | COCCOc1ccc2c(C#N)c(-c3ccc(NC(=O)Oc4ccc(Cl)cc4)cc3)n(C3CCC3)c2c1 [Compound 1401]
237 to 238 °C | N#Cc1c(-c2cnc(NC3CCC3)nc2)n(C2CCC2)c2cc(Oc3ncccn3)ccc12 [Compound 3329]
150 to 155 °C | COCCOc1ccc2c(C#N)c(-c3ccc(NC(=O)OC(c4ccccc4)C(F)(F)F)cc3)n(C(C)C)c2c1 (stereo not shown) [Compound 2688]
180 to 181 °C | N#Cc1c(-c2ccc(NCc3ccccc3F)cc2)n(C2CCC2)c2cc(OC3CCOCC3)ccc12 [Compound 3120]
192 to 193 °C | COCCOc1ccc2c(C#N)c(-c3ccc(NS(=O)(=O)C4CC4)cc3)n(C3CCC3)c2c1 [Compound 1417]
141 to 144 °C | CCn1c(-c2ccc(NC(=O)OC(C)C)cc2)c(C#N)c2ccc(OCCOC)cc21 [Compound 1406]
227 to 229 °C | C[C@@H](OC(=O)Nc1ccc(-c2c(C#N)c3ccc(Oc4ncccn4)cc3n2C2CCC2)cn1)C(F)(F)F [Compound 3322]
209 to 211 °C | C[C@@H](OC(=O)Nc1ccc(-c2c(C#N)c3cc(Oc4nccnc4Cl)ccc3n2C2CCC2)cc1)C1CC1 [Compound 3255]
256 to 261 °C | CC(C)S(=O)(=O)Nc1ccc(-c2c(C#N)c3ccc(N4CCCC4)cc3n2C2CCC2)cc1 [Compound 2975]
199 to 203 °C | N#Cc1c(-c2ccc(NS(=O)(=O)C3CC3)cc2)n(C2CCC2)c2ccc(OC3COCOC3)cc12 [Compound 2775]
183 to 184 °C | CCCS(=O)(=O)Nc1ccc(-c2c(C#N)c3ccc(Oc4nccnc4Cl)cc3n2C2CC2)cc1 [Compound 2937]
107 to 109 °C | CCn1c(-c2ccc(NC(=O)OCc3ccccc3)cc2)c(C#N)c2ccc(OCCOC)cc21 [Compound 1372]
113 to 116 °C | COCCOc1ccc2c(C#N)c(-c3ccc(NC(=O)O[C@H](C)c4ccc(F)cc4)cc3)n(C(C)C)c2c1 [Compound 2854]
243 to 250 °C | C[C@@H](OC(=O)Nc1ccc(-c2c(C#N)c3ccc(OC4CCS(=O)(=O)CC4)cc3n2C2CCCC2)cc1)C1CC1 [Compound 3245]
175 to 177 °C | CC(C)CS(=O)(=O)Nc1ccc(-c2c(C#N)c3ccc(OC4COCOC4)cc3n2C2CCC2)cc1 [Compound 2917]
251 to 256 °C | N#Cc1c(-c2ccc(N3CCCCS3(=O)=O)cc2)n(C2CC2)c2cc(Oc3ncccn3)ccc12 [Compound 3216]
181 to 184 °C | CCCS(=O)(=O)Nc1ccc(-c2c(C#N)c3ccc(Oc4ncccc4C(F)(F)F)cc3n2C2CCC2)cc1 [Compound 3201]
188 to 191 °C | COCCOc1ccc2c(C#N)c(-c3ccc(NC(=O)OC(C)(C)C(F)(F)F)cc3)n(C(C)C)c2c1 [Compound 2718]
168 to 171 °C | CCn1c(-c2ccc(NS(=O)(=O)CC)cc2)c(C#N)c2ccc(C(=O)N3CCCC3)cc21 [Compound 1363]
267 to 268.5 °C | CC(C)OC(=O)Nc1ccc(-c2c(C#N)c3ccc(-n4ccccc4=O)cc3n2C2CCC2)cc1 [Compound 3277]
237 to 238 °C | C[C@@H](OC(=O)Nc1ccc(-c2c(C#N)c3ccc(-n4ccccc4=O)cc3n2C2CCC2)cc1)C1CC1 [Compound 3315]
185 to 187 °C | CCCS(=O)(=O)Nc1ccc(-c2c(C#N)c3ccc(OC4CCOCC4)cc3n2C2CCC2)cc1 [Compound 2746]
148 to 151 °C | CCn1c(-c2ccc3c(ccn3S(C)(=O)=O)c2)c(C#N)c2ccc(OC)cc21 [compound 1330, 1-ethyl-1′-methanesulfonyl-6-methoxy-1H,1′H-[2,5′]biindolyl-3-carbonitrile]
165 to 166 °C | CN(C)c1ccc(NC(=O)Oc2ccc(-c3c(C#N)c4ccc(OC5CCOCC5)cc4n3C3CCC3)cc2)cc1 [Compound 3111]

The next lines start with the molecule.

Compound | melting point
CCn1c(-c2ccc(NC(=O)C3CC3)cc2)c(C#N)c2ccc(OCCN3CCN(CCOC)CC3)cc21 [Compound 1414] | 163.9 to 168.8 °C
N#Cc1nccnc1Oc1ccc2c(C#N)c(-c3ccc(NS(=O)(=O)NCC4CC4)cc3)n(C3CC3)c2c1 [Compound 3211] | 189 to 191 °C
Cc1cc(NC(=O)O[C@H](C)C2CC2)ccc1-c1c(C#N)c2ccc(Oc3nccnc3C#N)cc2n1C1CCC1 [Compound 3334] | 108 to 116 °C
CCn1c(-c2ccc(NC(=O)OCC(C)C)cc2)c(C#N)c2ccc(OCCOC)cc21 [Compound 1370] | 145 to 148 °C
N#Cc1c(-c2ccc(NS(=O)(=O)C3CC3)cc2)n(C2CC2)c2cc(N3CCOCC3)ccc12 [Compound 2877] | 241 to 243 °C
CCOc1ccc2c(C#N)c(-c3ccc4c(c3)CCC(=O)N4)n(C3CCC3)c2c1 [Compound 3221] | 249 to 250 °C
CC(C)OC(=O)Nc1ccc(-c2c(C#N)c3ccc(N4CCOCC4)cc3n2C2CC2)cc1 [Compound 2856] | 220 to 227 °C
CCCS(=O)(=O)Nc1ccc(-c2c(C#N)c3ccc(OCS(C)(=O)=O)cc3n2C2CCC2)cc1 [Compound 2987] | 266 to 273 °C
CCCS(=O)(=O)Nc1ccc(-c2c(C#N)c3ccc(Oc4nccnc4C#N)cc3n2C2CC2)c(C)c1 [Compound 3305] | 225 to 228 °C
C[C@@H](OC(=O)Nc1ccc(-c2cc3ccc(Oc4nccnc4C#N)cc3n2CC2CC2)cc1)C1CC1 [Compound 3283] | 145 to 147 °C
CCCS(=O)(=O)Nc1ccc(-c2c(C#N)c3ccc(Oc4ncccc4C(F)(F)F)cc3n2C2CC2)cc1 [Compound 2935] | 216 to 217 °C
CS(=O)(=O)COc1ccc2c(C#N)c(-c3ccc(NS(=O)(=O)C4CCC4)cc3)n(C3CCC3)c2c1 [Compound 2993] | 231 to 237 °C
N#Cc1c(-c2ccc(NC(=O)OC(c3ccccc3)C(F)(F)F)cc2)n(C2CCC2)c2cc(Oc3ncccn3)ccc12 (stereo not shown) [Compound 2709] | 246 to 248 °C
CC(C)OC(=O)Nc1ccc(-c2c(C#N)c3ccc(OCC(O)Cn4cncn4)cc3n2C2CCC2)cc1 (stereo not shown) [compound 1420, {4-[3-Cyano-1-cyclobutyl-6-(2-hydroxy-3-[1,2,4]triazol-1-yl-propoxy)-1H-indol-2-yl]-phenyl}-carbamic acid isopropyl ester] | 209 to 215 °C
CCCS(=O)(=O)Nc1ccc(-c2c(C#N)c3ccc(Oc4ncccc4C#N)cc3n2C2CCC2)c(F)c1 [Compound 3346] | 113 to 116 °C
N#Cc1c(-c2ccc(N(CCF)c3nc(C(F)(F)F)cs3)cc2)n(C2CCC2)c2cc(OCCF)ccc12 [Compound 3188] | 137 to 138 °C
CC(C)CS(=O)(=O)Nc1ccc(-c2c(C#N)c3ccc(-n4ccccc4=O)cc3n2C2CCC2)cc1 [Compound 3015] | 270 °C (dec.)
CCOc1ccc2c(C#N)c(-c3ccc(NC(=O)NCCc4ccccn4)cc3)n(C3CCC3)c2c1 [Compound 1392] | 193 to 197 °C

Compound | melting point
CC(C)OC(=O)Nc1ccc(-c2c(C#N)c3ccc(O[C@@H]4CCOC4)cc3n2C2CCC2)cc1 [Compound 2638] | 196 to 197 °C
N#Cc1c(-c2ccc(Nc3ccccn3)cc2)n(C2CCC2)c2cc(OC3CCOCC3)ccc12 [Compound 3163] | 211 to 212 °C
N#Cc1c(-c2ccc(NS(=O)(=O)C3CC3)cc2)n(CC2CC2)c2cc(OC3CCOCC3)ccc12 [Compound 2768] | 99 to 102 °C
C[C@@H](OC(=O)Nc1ccc(-c2c(C#N)c3cc(Oc4ncccn4)ccc3n2C2CCC2)cc1)C1CC1 [Compound 2996] | 200 to 202 °C
N#Cc1c(-c2ccc(NS(=O)(=O)C3CC3)cc2)n(C2CCC2)c2cc(OC3COCOC3)ccc12 [Compound 2928] | 216 to 217 °C
CC(OC(=O)Nc1ccc(-c2c(C#N)c3ccc(OC4CCOCC4)cc3n2C2CC2)cc1)C(C)(C)C (stereo not shown) [Compound 2648] | 203 to 205 °C
CCOc1ccc(-c2c(C#N)c3ccc(N4CCN(C(=O)OC(C)(C)C)CC4)cc3n2CC)cc1 [compound 1337, 4-[3-cyano-2-(4-ethoxyphenyl)-1-ethylindol-6-yl]piperazine-1-carboxylic acid tert-butyl ester] | 183 to 184 °C
CCCNC(=O)Oc1ccc(-c2c(C#N)c3ccc(OC4CCOCC4)cc3n2C2CCC2)cc1 [Compound 2808] | 153 to 154 °C
CC(OC(=O)Nc1ccc(-c2c(C#N)c3ccc(OC4CCOC4)cc3n2C2CCC2)cc1)C1CC1 (stereo not shown) [Compound 1453] | 183 to 184 °C
CC(OC(=O)Nc1ccc(-c2c(C#N)c3ccc(OCCCCn4ccnc4)cc3n2C2CCC2)cc1)c1ccc(F)cc1 (stereo not shown) [Compound 2642] | 93 to 95 °C
C[C@@H](OC(=O)Nc1ccc(-c2c(C#N)c3ccc(N4CCOCC4)cc3n2C2CCC2)cc1)c1ccc(F)cc1 [Compound 2865] | 163 to 165 °C
CCOC(=O)Nc1ccc(-c2c(C#N)c3ccc(OCCOC)cc3n2CC)cc1 [Compound 1368] | 175 to 177 °C
N#Cc1c(-c2ccc(NCCCc3ccccc3)cc2)n(C2CCC2)c2cc(OC3CCOCC3)ccc12 [Compound 3118] | 105 to 108 °C
Cc1cc(C)cc(CNc2ccc(-c3c(C#N)c4ccc(OC5CCOCC5)cc4n3C3CCC3)cc2)c1 [Compound 3122] | 104 to 107 °C
CCS(=O)(=O)Nc1ccc(-c2c(C#N)c3ccc(OC4CCS(=O)(=O)CC4)cc3n2C2CCC2)cc1 [Compound 3184] | 259 to 264 °C
CCOc1ccc2c(C#N)c(-c3ccc(S(=O)(=O)N4CCC(O)C4)cc3)n(C3CCC3)c2c1 (stereo not shown) [Compound 3086] | 194 to 196 °C
CCOCCOc1ccc2c(C#N)c(-c3ccc(NC(=O)OC(C)C4CC4)cc3)n(C3CCC3)c2c1 (stereo not shown) [Compound 2613] | 141 to 142 °C
CCCCNC(=O)Oc1ccc(-c2c(C#N)c3ccc(OC4CCOCC4)cc3n2CC2CC2)cc1 [Compound 2783] | 146 to 147 °C
